Data published in US20240384268A1, “Oligonucleotides” (Hudson Institute of Medical Research, priority 2021, published 2024).
In the oligonucleotide strings, read from the 5' end, every base follows the letter of its sugar. An asterisk marks phosphorothioate; unmarked linkages are phosphodiester. Other units and linkages are bracketed, terminal groups are in braces. A string of capitals states the bases alone. d = 2'-deoxy (DNA); m = 2'-O-methyl

Biological target: T1, human TLR9 (Homo sapiens, UniProt Q9NR96)
T1 construct: HA; host or cells: 293XL-hTLR9-HA (HEK293)
T1 sequence (Q9NR96 26-1032): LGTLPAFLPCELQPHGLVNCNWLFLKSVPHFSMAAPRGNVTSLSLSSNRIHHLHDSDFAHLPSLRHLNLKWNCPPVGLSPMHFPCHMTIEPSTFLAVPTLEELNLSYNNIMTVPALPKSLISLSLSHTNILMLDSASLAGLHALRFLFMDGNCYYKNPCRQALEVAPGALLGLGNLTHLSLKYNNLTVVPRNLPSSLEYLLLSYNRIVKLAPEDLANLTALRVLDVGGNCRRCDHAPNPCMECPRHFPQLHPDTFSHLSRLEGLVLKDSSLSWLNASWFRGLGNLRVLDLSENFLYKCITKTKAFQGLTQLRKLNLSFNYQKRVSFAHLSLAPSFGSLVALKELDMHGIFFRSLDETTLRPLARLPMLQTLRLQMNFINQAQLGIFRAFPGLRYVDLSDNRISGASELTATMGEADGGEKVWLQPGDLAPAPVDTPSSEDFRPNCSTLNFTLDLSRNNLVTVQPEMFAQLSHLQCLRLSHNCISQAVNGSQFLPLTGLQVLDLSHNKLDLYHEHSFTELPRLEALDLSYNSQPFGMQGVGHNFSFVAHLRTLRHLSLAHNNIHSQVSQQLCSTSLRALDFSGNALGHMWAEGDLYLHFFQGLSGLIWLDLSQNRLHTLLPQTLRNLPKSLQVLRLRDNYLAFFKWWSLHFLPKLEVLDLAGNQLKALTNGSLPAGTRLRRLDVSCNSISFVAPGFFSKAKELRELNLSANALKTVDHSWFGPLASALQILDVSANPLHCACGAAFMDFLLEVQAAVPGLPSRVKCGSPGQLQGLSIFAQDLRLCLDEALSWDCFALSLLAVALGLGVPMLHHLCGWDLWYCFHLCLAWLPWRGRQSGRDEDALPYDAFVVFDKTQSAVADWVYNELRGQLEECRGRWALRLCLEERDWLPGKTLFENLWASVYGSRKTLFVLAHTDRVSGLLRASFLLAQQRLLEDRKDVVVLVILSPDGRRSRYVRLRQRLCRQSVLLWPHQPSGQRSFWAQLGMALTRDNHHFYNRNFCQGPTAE
Experiment: HEK-TLR9 NF-κB-luciferase reporter, ODN2006 stimulation
Type: cell-based
Conditions: for TLR9 100 nM (averaged NF-κB-Luciferase level relative to ODN2006 condition): ASO 100 nM; for TLR9 100 nM (averaged NF-κB-Luciferase level relative to ODN2006 condition) / TLR9 500 nM (averaged NF-κB-Luciferase level relative to ODN2006 condition): relative to ODN2006 only, given as fraction; for TLR9 500 nM (averaged NF-κB-Luciferase level relative to ODN2006 condition): ASO 500 nM; for TLR9 2 uM: 3mer 2'OMe ASO at 2 uM, HEK-TLR9, value relative to Ligand only = 1.000, NT = 0.000

| Substance | TLR9 100 nM (averaged NF-κB-Luciferase level relative to ODN2006 condition) | TLR9 500 nM (averaged NF-κB-Luciferase level relative to ODN2006 condition) | TLR9 2 uM |
| --- | --- | --- | --- |
| GGCTGGAATCCGAGTT (antisense; LNA-modified, pattern not given here) [EGFR-4705 LNA KL] | 1.051 | 0.492 | – |
| ACU (antisense mA*mC*mU) | – | – | 0.996 |
| dC*dA*dC (CAC; listed as RNA, chemistry not fully specified) | – | – | 0.830 |
| GTCCCCTGTTGACTGG (antisense; LNA-modified, pattern not given here) [HPRT LNA-489 KL] | 0.387 | 0.326 | – |
| TGTGATGGCCTCCCAT (antisense; LNA-modified, pattern not given here) [HPRT LNA-334 V1] | 0.818 | 0.431 | – |
| CAACACTTCGTGGGGT (antisense; LNA-modified, pattern not given here) [HPRT LNA-667 V1] | 0.733 | 0.395 | – |
| mGmUmA (GUA; all 2'-O-methyl, backbone not given here; further chemistry not fully specified) [shortMut1-3b] | – | – | 1.042 |
| AGU (antisense mA*mG*mU) | – | – | 0.840 |
| TTCGTGGGGTCCTTTT (antisense; LNA-modified, pattern not given here) [HPRT LNA-661 V1] | 0.963 | 0.523 | – |
| GGU (mG*mG*mU) | – | – | 1.177 |
| dG*dC*dG [GCG] | – | – | 1.299 |
| TCCAACACTTCGTGGG (antisense; LNA-modified, pattern not given here) [HPRT LNA-669 V1] | 0.623 | 0.473 | – |
| GCCATGCTGGCTCGGA (antisense; LNA-modified, pattern not given here) [CAMSAP1-2584 LNA V1] | 0.879 | 0.147 | – |
| dG*dC*dC [GCC] | – | – | 1.305 |
| dA*dG*dC (DNA AGC; listed as DNA, chemistry not fully specified) | – | – | 0.749 |
| mGmUmC (mG*mU*mC) [GUC, 3-mer 2′OMe PS oligo] | – | – | 0.856 |
| ACACTTCGTGGGGTCC (antisense; LNA-modified, pattern not given here) [HPRT LNA-665 V1] | 0.241 | 0.001 | – |
| mGmUmU (mG*mU*mU) [GUU, 3-mer 2′OMe PS oligo] | – | – | 1.159 |
| dA*dA*dC (DNA AAC; listed as DNA, chemistry not fully specified) | – | – | 0.931 |
| mGmUmG (mG*mU*mG) [GUG, 3-mer 2′OMe PS oligo] | – | – | 1.374 |
| GGTTACGGCTCAGTAT (antisense; LNA-modified, pattern not given here) [CAMSAP1-4295 LNA KL] | 0.943 | 0.400 | – |
| UAG (mU*mA*mG) | – | – | 0.977 |
| TTTTGGCTGGGATCAA (antisense; LNA-modified, pattern not given here) [CAMSAP1-4697 LNA KL] | 0.985 | 0.169 | – |
| UAC (mU*mA*mC) | – | – | 0.997 |
| CCAAGATCAGCAGTCT (antisense; LNA-modified, pattern not given here) [CTNN2B-2341 LNA KL] | 1.424 | 0.669 | – |
| mUmGmG (mU*mG*mG) [UGG, 3-mer 2′OMe PS oligo] | – | – | 1.137 |
| UUC (mU*mU*mC) | – | – | 0.770 |
